Measurements: PMC2700083, “A covalent peptide inhibitor of RGS4 identified in a focused one-bead, one compound library screen” (BMC Pharmacology, 2009)
Substitutions are numbered along the chain they refer to. ≈ marks a conversion by molar mass, not a printed value. Where “and” joins values, the source holds several entries; their conditions need not be identical. Equal entries are not always repeated. Where two headings read alike, the source gives them in different places. Where a SMILES comes first, the peptide text is derived from it. Bridges are numbered along the chain shown (N, C = ends).

Key:
RGS19 = target: T1, RGS19 (Homo sapiens, UniProt P49795); assay: FCPIA, Gαo binding to RGS19; details: Figure 2
T1 construct: RGS19ΔC11 (amino acids 1–209); made in house
T1 sequence (P49795 1-209): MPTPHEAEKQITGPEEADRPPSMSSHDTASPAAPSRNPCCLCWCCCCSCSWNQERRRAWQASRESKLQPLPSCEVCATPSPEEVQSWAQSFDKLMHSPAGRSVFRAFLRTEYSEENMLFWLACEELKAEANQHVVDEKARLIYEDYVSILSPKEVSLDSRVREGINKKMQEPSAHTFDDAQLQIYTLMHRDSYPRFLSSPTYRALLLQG
Method: We recently described a bead-based screen in which 2.5 × 10^6 different peptide sequences were prepared as a OBOC library. Fluorescently labeled RGS4 was used to probe the library for peptides that bind RGS4 [5]. […] Since the majority of those hit peptides could bind tightly to the RGS without disrupting GAP activity, they were also tested in the flow cytometry protein interaction assay (FCPIA) (Figure 1), which measures the interaction between RGS4 and Gαo. In this method we used a Luminex flow cytometer to detect the binding of Alexa Fluor 532-labeled Gαo to biotinylated RGS4 on avidin beads in the presence of AMF (AlCl3, MgCl2, NaF and GDP) to put the Gα subunit into a transition state-like conformation. Peptides were tested at 50 μM except where limited by solubility (Table 1).
5nd inhibited Gαo binding to a number of different RGS proteins (Figure 2). […] RGS19 and RGS7 are in the RZ and R7 families, respectively and show less inhibition by 5nd. Linear as well as bridged versions of peptide 5 were tested in the FCPIA since cyclization yields would most likely have been less then 100% in the synthesis of the library leaving some linear peptides present on each bead. […] This may be due to lack of structural rigidity necessary for the correct interaction of the peptide with the RGS protein or a role for chemical reactivity of the disulfide.
Figure 2 Characterization of hit 5. […]

RGS4 C132A = target: T2, RGS4 C132A (Rattus norvegicus, UniProt P49799, C132A); assay: FCPIA, RGS4 cysteine mutant C132A; format: binding; details: read-out: 5nd logIC50 (converted)
T2 construct: made in house
T2 sequence (P49799 52-205 C132A limits assumed): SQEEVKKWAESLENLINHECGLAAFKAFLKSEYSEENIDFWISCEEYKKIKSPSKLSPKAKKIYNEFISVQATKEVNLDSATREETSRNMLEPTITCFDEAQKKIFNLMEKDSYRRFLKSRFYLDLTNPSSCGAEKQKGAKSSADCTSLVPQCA
Method: (§1) Figure 5 Dose curves of 5nd on various RGS4 cysteine mutants. Various concentrations of 5nd were tested for disruption of the RGS4-Gαo interaction for C95A (5 nM), or […], C71A (5nM) or C148A (5nM) (B), A95C in the -7C (5nM), or A132C in the -7C (5nM) (C), A71C in the -7C (5nM), or A148C in the -7C (5nM) (D) or the mutant with no cysteines in the domain (20 nM) or the C-terminus (20 nM) (E) in the FCPIA (mean ± S.E.M., n ≥ 3).
Proteins were expressed, purified and labeled as described previously. The mutagenesis was done using the "QuickChange Multi Site-Directed Mutagenesis Kit" from Stratagene according to the manufacturer's protocol. The construct of RGS4 used in these studies is a maltose binding protein (MBP-) fusion protein of the RGS4 sequence from which the amphipathic N-terminal helix has been removed (i.e. MBP-RGS4Δ51N). For simplicity in the text, this will be referred to as RGS4. All other RGS proteins were human sequences and were used as Mpb fusions: RGS7 RGS domain (aa: 305–453), RGS8 full length, RGS16 full length, and RGS19ΔC11 (amino acids 1–209). To cleave RGS4Δ51N from the MBP-His6 construct for MS analysis, MBP-His6-RGS4Δ51N was treated with 15% MBP-His6-TEV protease S219V [11] for 22 hours at 4°C and purified over a Ni-NTA column.
FCPIA was performed as previously published.

RGS4 -7C = target: T3, RGS4 -7C (Rattus norvegicus, UniProt P49799, C132A/C148A/C183A/C197A/C204A/C71A/C95A); assay: FCPIA, RGS4 -7C mutant (all 7 cysteines removed); format: binding; details: read-out: 5nd logIC50 (converted)
T3 construct: made in house
Method: Since 5nd forms an irreversible, DTT-sensitive bond with RGS, it was suspected that it binds covalently to a cysteine in the protein through a disulfide bridge. Indeed, removal of all 7 cysteines (termed the -7C mutant) from RGS4 greatly diminished 5nd activity (logIC50 of -3.24 ± 0.14 for -7C vs. -4.36 ± 0.02 for wild type) (Figure 5, Table 2).
as §1
(§2) Proteins were expressed, purified and labeled as described previously. The mutagenesis was done using the "QuickChange Multi Site-Directed Mutagenesis Kit" from Stratagene according to the manufacturer's protocol. The construct of RGS4 used in these studies is a maltose binding protein (MBP-) fusion protein of the RGS4 sequence from which the amphipathic N-terminal helix has been removed (i.e. MBP-RGS4Δ51N). For simplicity in the text, this will be referred to as RGS4. […]

RGS4 A95C, -7C = target: T4, RGS4 A95C, -7C (Rattus norvegicus, UniProt P49799, C132A/C148A/C183A/C197A/C204A/C71A); assay: FCPIA, RGS4 A95C in the -7C; format: binding; details: read-out: 5nd logIC50 (converted)
T4 construct: made in house
Method: as §1
(§3) The previous experiments tested which cysteines are necessary for inhibition by 5nd. In an alternative approach, we added cysteines back to the -7C mutant to determine which might be sufficient for 5nd activity. […] Furthermore, Cys132 is involved in the actions but this is clearly not sufficient to explain them. Thus it is concluded that 5nd is at least partially non-selective in its cysteine modification.
as §2

RGS4 A132C, -7C = target: T5, RGS4 A132C, -7C (Rattus norvegicus, UniProt P49799, C148A/C183A/C197A/C204A/C71A/C95A); assay: FCPIA, RGS4 A132C in the -7C; format: binding; details: read-out: 5nd logIC50 (converted)
T5 construct: made in house
Method: as §1, §3, §2

[1] = Solubility in buffer by HPLC; format: physicochemical
Method: Soluble peptides were synthesized on Rink resin, cleaved and cyclized as described previously. Peptide purity (at least 95%) and solubility were verified by high-performance liquid chromatography and correct mass was verified by MS analysis. ALogP calculations are from. Peptides were prepared as 5 mM stocks in DMSO.

RGS4 = target: T6, RGS4 (Rattus norvegicus, UniProt P49799); assay: FCPIA (flow cytometry protein interaction assay), RGS4-Gαo interaction, wild type RGS4 (MBP-RGS4Δ51N); format: binding; details: 100 μM
T6 construct: made in house
T6 sequence (P49799 52-205 limits assumed): T2 sequence (P49799 52-205 C132A limits assumed) with A81C

T4 sequence (P49799 52-205 C71A/C132A/C148A/C183A/C197A/C204A): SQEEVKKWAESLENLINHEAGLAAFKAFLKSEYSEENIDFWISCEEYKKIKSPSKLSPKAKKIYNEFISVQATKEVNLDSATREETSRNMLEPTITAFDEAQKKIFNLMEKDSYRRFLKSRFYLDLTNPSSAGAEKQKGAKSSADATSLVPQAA
T5 sequence (P49799 52-205 C71A/C95A/C148A/C183A/C197A/C204A): as the sequence (P49799 52-205 C71A/C132A/C148A/C183A/C197A/C204A) above, with C44A, A81C counted along it
T3 sequence (P49799 52-205 C71A/C95A/C132A/C148A/C183A/C197A/C204A): as the sequence (P49799 52-205 C71A/C132A/C148A/C183A/C197A/C204A) above, with C44A counted along it

## CC(C)C[C@@H]1NC(=O)CNC(=O)[C@H](CCCCN)NC(=O)[C@@H](NC(=O)[C@H](Cc2c[nH]c3ccccc23)NC(=O)[C@@H](N)Cc2ccc(O)cc2)CSSC[C@@H](C(=O)N[C@@H](CCCCN)C(N)=O)NC1=O [Peptide 5nd, Tyr-Trp-c [Cys-Lys-Gly-Leu-Cys]-Lys-NH2, S-S] (H-YWCKGLCK-NH2; disulfide 3-7)
RGS19; read-out: logIC50, RGS19 (converted)
  IC50: ~145 µM
RGS19; dose response, read-out: IC50, Gαo binding to RGS19
  IC50: 145 µM and ~145 µM
RGS4 C132A
  IC50: 138 µM
RGS4 -7C
  IC50: 575 µM
RGS4 A95C, -7C
  IC50: 263 µM
RGS4 A132C, -7C
  IC50: 389 µM
[1]
  solubility: 463 µM (≈ 462 µg/mL)
RGS4; beads washed in buffer with 1 mM DTT, read-out: percent inhibition of RGS4-Gαo after DTT wash
  inhibition at 100 µM: 15 ± 4%
RGS4; beads washed in buffer without DTT, read-out: percent inhibition of RGS4-Gαo remaining after washing of the beads
  inhibition at 100 µM: 75 ± 11%
